From the supplement of paper PMC12463676, “Small-molecule dissolution of stress granules by redox modulation benefits ALS models” (Nature Chemical Biology, 2025)

Experiments:
[1] = compound: NC(=O)CCCCC1CCSS1 [lipoamide]; test: thermal stability z-score vs DMSO; higher = more thermally stabilized by treatment; conditions: HeLa, lipoamide concentration 100 µM
Method: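 Cellular thermal proteome profiling in HeLa cells. Cells were treated with 100 µM lipoamide for 1 h, with or without 1 mM arsenate for a further 1 h, then heated to ten temperatures (37-66.3 °C), and soluble protein was quantified by TMT mass spectrometry relative to 0.1% DMSO controls. The thermal stability score (sum of log2 fold changes minus the abundance score) was transformed to a z-score; mean of n = 3 experiments.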

[2] = compound: O=[As]([O-])(O)O.[K+] [potassium arsenate]; test: as above; conditions: HeLa; arsenate concentration 1 mM
Method: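 Cellular thermal proteome profiling in HeLa cells treated with 1 mM arsenate for 1 h (DMSO pretreatment), heated to ten temperatures (37-66.3 °C). Soluble protein was quantified by TMT mass spectrometry relative to DMSO controls; the thermal stability score was transformed to a z-score; mean of n = 3 experiments.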

[3] = arsenate co-treatment: 1 mM arsenate 1 h
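Further: each temperature applied for 3 min, abundance score taken as mean log2 fold change at the two lowest temperatures, z-score obtained by mean subtraction and division by SD.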

Chain of UniProt Q5TA31 (Q5TA31 whole entry): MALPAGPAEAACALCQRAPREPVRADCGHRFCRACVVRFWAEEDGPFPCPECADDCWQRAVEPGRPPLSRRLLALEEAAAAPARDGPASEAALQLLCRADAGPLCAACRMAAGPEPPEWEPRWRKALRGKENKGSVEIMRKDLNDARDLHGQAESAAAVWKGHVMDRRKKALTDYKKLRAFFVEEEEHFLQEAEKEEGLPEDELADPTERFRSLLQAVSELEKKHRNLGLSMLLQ
Chain of UniProt Q9UHQ1 (Q9UHQ1 whole entry): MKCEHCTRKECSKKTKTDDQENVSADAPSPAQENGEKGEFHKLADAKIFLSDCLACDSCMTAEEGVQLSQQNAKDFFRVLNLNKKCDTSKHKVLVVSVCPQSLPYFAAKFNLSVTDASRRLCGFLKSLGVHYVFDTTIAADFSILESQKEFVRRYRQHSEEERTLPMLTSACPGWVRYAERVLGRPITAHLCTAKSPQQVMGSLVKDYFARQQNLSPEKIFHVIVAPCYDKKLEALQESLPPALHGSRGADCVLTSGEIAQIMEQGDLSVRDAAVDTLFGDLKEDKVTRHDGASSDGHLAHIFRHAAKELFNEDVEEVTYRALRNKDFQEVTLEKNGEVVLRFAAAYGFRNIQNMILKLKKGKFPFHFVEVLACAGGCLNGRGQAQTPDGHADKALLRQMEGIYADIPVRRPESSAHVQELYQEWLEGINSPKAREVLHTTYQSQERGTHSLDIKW
Chain of UniProt Q9NQG1 (Q9NQG1 whole entry): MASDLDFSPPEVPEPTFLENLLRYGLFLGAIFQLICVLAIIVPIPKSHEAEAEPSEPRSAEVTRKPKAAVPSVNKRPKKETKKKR
Chain of UniProt Q9NZN4 (Q9NZN4 whole entry): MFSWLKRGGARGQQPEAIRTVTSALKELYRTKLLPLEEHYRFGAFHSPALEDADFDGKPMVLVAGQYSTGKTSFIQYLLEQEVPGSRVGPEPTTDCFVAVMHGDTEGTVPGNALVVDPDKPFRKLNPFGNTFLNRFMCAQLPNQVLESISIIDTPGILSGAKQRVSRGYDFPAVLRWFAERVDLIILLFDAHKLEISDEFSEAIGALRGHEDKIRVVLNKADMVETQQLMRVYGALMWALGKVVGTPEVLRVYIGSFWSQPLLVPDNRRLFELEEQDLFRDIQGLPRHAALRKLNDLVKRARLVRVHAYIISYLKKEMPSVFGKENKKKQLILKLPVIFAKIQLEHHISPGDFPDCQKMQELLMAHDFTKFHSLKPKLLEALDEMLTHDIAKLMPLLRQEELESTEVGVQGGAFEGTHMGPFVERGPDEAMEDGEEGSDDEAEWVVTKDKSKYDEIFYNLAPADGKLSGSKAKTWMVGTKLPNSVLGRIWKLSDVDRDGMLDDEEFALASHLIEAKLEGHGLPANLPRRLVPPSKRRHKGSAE
Chain of UniProt Q15637 (Q15637 whole entry): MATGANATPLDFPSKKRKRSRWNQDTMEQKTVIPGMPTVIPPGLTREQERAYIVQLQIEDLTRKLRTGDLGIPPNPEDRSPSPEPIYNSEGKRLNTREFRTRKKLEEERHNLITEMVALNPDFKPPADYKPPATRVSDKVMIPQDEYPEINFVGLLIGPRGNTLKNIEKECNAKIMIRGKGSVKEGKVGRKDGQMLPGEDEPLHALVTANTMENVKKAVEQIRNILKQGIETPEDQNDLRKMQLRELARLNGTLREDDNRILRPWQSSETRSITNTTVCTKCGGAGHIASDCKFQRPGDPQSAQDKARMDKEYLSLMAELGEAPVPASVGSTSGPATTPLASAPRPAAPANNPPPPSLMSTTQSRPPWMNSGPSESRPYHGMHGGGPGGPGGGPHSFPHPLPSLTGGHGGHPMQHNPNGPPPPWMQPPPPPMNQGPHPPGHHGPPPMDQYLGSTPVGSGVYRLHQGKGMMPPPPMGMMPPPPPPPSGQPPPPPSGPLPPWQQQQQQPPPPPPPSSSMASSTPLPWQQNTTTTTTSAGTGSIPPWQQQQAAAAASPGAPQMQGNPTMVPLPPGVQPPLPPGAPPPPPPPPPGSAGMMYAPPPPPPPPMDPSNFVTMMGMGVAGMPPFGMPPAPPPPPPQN
Chain of UniProt Q9NR30 (Q9NR30 whole entry): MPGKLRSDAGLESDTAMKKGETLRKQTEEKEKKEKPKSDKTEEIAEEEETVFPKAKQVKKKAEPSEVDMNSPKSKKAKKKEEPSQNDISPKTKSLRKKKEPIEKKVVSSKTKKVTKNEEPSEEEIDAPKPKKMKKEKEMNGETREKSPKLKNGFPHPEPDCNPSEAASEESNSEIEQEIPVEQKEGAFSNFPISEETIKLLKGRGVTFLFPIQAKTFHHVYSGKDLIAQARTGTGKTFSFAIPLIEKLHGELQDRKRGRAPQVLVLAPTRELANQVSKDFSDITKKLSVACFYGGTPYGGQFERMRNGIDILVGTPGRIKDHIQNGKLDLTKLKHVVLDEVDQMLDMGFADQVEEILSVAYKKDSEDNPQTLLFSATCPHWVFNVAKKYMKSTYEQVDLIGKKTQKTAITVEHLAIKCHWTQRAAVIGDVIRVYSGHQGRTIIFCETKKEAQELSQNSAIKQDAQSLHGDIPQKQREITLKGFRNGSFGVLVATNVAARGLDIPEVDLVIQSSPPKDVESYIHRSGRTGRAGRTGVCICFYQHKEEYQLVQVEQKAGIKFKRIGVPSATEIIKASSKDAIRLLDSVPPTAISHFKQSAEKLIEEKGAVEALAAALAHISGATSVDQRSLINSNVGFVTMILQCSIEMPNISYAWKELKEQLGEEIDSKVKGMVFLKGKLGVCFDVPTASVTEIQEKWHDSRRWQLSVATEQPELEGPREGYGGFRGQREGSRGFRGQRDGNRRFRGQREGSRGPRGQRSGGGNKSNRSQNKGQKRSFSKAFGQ
Chain of UniProt P13667 (P13667 whole entry): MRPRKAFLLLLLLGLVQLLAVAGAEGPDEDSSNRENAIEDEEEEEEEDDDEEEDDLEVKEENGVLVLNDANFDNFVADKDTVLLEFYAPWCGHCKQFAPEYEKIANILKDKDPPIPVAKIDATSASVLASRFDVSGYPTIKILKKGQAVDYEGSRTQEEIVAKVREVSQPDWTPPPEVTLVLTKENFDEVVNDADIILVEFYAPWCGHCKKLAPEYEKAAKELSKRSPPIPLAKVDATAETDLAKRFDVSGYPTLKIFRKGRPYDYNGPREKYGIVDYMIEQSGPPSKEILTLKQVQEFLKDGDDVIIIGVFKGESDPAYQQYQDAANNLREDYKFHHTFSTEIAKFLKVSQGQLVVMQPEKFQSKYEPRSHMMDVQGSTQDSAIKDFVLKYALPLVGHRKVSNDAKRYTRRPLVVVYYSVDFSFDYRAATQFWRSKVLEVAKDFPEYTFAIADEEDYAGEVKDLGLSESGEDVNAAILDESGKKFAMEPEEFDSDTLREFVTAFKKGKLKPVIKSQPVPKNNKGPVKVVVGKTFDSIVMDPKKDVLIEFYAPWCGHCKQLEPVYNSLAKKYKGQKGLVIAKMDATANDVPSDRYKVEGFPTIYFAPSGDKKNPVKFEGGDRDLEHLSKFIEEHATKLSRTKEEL
Chain of UniProt Q9Y5Q0 (Q9Y5Q0 whole entry): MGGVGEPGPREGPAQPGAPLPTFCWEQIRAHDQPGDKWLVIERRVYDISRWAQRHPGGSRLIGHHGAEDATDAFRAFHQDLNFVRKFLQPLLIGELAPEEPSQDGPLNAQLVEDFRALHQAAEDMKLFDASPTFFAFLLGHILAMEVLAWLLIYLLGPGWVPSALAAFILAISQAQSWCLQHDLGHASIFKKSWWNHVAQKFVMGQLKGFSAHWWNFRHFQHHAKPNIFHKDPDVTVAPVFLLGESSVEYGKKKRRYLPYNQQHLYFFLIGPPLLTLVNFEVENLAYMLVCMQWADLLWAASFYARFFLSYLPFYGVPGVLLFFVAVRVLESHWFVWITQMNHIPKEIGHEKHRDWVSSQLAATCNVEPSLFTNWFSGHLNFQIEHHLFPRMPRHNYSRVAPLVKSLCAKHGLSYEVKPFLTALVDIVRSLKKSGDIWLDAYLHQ
Chain of UniProt Q96K21 (Q96K21 whole entry): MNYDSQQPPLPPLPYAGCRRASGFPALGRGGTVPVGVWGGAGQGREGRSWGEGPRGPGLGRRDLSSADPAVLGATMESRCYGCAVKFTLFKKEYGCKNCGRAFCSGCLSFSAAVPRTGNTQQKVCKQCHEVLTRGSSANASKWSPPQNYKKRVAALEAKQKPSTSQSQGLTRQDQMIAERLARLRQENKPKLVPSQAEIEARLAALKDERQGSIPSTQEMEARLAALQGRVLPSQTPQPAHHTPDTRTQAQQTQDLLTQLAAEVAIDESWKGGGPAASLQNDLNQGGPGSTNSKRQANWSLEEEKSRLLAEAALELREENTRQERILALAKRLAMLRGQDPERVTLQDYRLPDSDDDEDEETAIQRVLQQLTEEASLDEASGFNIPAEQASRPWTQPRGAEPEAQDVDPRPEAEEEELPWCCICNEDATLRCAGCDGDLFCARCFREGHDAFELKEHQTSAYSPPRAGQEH
Chain of UniProt Q7Z6V5 (Q7Z6V5 whole entry): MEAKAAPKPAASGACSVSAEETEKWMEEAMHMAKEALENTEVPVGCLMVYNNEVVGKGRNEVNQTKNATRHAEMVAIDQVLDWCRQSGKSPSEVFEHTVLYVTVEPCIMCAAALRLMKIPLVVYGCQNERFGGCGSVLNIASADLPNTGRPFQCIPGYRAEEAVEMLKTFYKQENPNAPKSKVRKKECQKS
Chain of UniProt Q9NZ45 (Q9NZ45 whole entry): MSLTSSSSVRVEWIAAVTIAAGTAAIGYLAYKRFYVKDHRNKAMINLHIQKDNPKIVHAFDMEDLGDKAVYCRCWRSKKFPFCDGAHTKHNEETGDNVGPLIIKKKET
Chain of UniProt O15160 (O15160 whole entry): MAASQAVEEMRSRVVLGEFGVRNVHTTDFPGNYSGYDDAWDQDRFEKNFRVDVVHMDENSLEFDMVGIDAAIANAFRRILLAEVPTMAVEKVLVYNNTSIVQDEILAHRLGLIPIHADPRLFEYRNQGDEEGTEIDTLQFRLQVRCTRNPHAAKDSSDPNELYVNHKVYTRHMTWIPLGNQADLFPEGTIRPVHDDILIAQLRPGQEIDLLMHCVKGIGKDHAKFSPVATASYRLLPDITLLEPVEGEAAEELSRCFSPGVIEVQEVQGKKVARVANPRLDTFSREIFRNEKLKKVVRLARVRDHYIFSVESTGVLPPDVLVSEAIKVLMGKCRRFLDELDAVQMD

Row | Target | thermal stability z-score [1, 3] | thermal stability z-score ([1]; arsenate co-treatment: none) | thermal stability z-score [2]
1 | MGRN1 (UniProt O60291) | -0.792 | -0.153 | -0.181
2 | SRSF1 (UniProt Q07955) | 2.02 | 0.446 | -0.17
3 | GPRC5A (UniProt Q8NFJ5) | 0.158 | -0.194 | 0.816
4 | FASTKD3 (UniProt Q14CZ7) | -0.0188 | -0.107 | -0.00397
5 | UCK1 (UniProt Q9HA47) | -0.206 | -0.165 | 0.121
6 | RELB (UniProt Q01201) | -0.128 | -0.07 | 0.048
7 | RPS4X (UniProt P62701) | 0.35 | 0.0222 | -0.997
8 | PLEKHO2 (UniProt Q8TD55) | 0.146 | 0.015 | -0.257
9 | SAP30BP (UniProt Q9UHR5) | 0.884 | 0.612 | 1.03
10 | FADS3 (UniProt Q9Y5Q0) | -0.431 | 0.482 | -0.618
11 | PDIA4 (UniProt P13667) | -2.99 | -2.13 | 0.648
12 | MAPRE1 (UniProt Q15691) | 0.796 | 0.705 | 0.154
13 | ADAT2 (UniProt Q7Z6V5) | -0.663 | -0.376 | -0.708
14 | SUOX (UniProt P51687) | -0.266 | -0.279 | 0.168
15 | SF1 (UniProt Q15637) | 0.425 | 0.249 | 0.681
16 | RARS2 (UniProt Q5T160) | 0.0904 | -0.0472 | 0.328
17 | CKAP4 (UniProt Q07065) | -3.96 | -2.84 | -0.938
18 | FZD6 (UniProt O60353) | -1.56 | -1.7 | 0.376
19 | UBA1 (UniProt P22314) | -0.526 | 0.213 | -0.439
20 | IQGAP3 (UniProt Q86VI3) | -0.157 | -0.0447 | -0.171
21 | SGTA (UniProt O43765) | 0.332 | 0.487 | 0.149
22 | FAM134C (UniProt Q86VR2) | 0.622 | -0.494 | 1.35
23 | ARIH2 (UniProt O95376) | 0.203 | -0.216 | -0.521
24 | LRRC8A (UniProt Q8IWT6) | 0.614 | 0.234 | -0.275

Row | Target | thermal stability z-score [1, 3] | thermal stability z-score ([1]; arsenate co-treatment: none) | thermal stability z-score [2]
25 | TTL (UniProt Q8NG68) | -0.0821 | 0.166 | -0.126
26 | LUC7L3 (UniProt O95232) | -1.15 | -0.26 | -0.899
27 | CISD1 (UniProt Q9NZ45) | 0.257 | 0.707 | -0.578
28 | LRRC42 (UniProt Q9Y546) | -0.294 | -0.0469 | -0.0558
29 | ZFYVE19 (UniProt Q96K21) | -0.473 | -0.599 | -3.34
30 | ACBD3 (UniProt Q9H3P7) | 0.447 | 0.826 | 0.21
31 | CUX1 | 0.393 | 0.589 | 0.272
32 | NNT (UniProt Q13423) | 0.176 | 0.166 | 0.0461
33 | GLRX2 (UniProt Q9NS18) | 1.4 | 1.7 | 3.8
34 | HSPA4 (UniProt P34932) | 0.102 | 0.475 | -0.388
35 | BAG3 (UniProt O95817) | -0.145 | 0.303 | 0.236
36 | TRRAP (UniProt Q9Y4A5) | 0.918 | 0.759 | -1.16
37 | TDRD3 (UniProt Q9H7E2) | -0.448 | 0.0394 | -0.796
38 | KANK2 (UniProt Q63ZY3) | -0.0369 | 0.0732 | -0.109
39 | DDX21 (UniProt Q9NR30) | 0.693 | 0.249 | -1.35
40 | VPS53 (UniProt Q5VIR6) | 0.332 | 0.126 | -0.0122
41 | NARF (UniProt Q9UHQ1) | 0.102 | -0.133 | -0.0435
42 | DPH6 (UniProt Q7L8W6) | -0.187 | -0.152 | -0.722
43 | DCAF15 (UniProt Q66K64) | 0.165 | -0.178 | -0.174
44 | KDELC2 (UniProt Q7Z4H8) | -4.05 | -2.72 | 0.334
45 | SLC6A6 (UniProt P31641) | -0.428 | -0.488 | -0.649
46 | HFE (UniProt Q30201) | -0.0165 | 0.389 | 0.0645
47 | POLR1C (UniProt O15160) | 0.267 | 0.621 | -1.08
48 | NSFL1C (UniProt Q9UNZ2) | 0.605 | 0.41 | 1.21

Row | Target | thermal stability z-score [1, 3] | thermal stability z-score ([1]; arsenate co-treatment: none) | thermal stability z-score [2]
49 | STAMBPL1 (UniProt Q96FJ0) | 0.417 | 0.511 | 1.05
50 | REEP3 (UniProt Q6NUK4) | 0.197 | -0.171 | -0.0274
51 | CAPN1 (UniProt P07384) | -0.0396 | -0.213 | -0.369
52 | SEC24D (UniProt O94855) | 0.087 | -0.238 | -0.578
53 | DSG1 (UniProt Q02413) | 11 | 13.3 | 1.69
54 | HS2ST1 (UniProt Q7LGA3) | 0.123 | -0.171 | 0.457
55 | GXYLT1 (UniProt Q4G148) | -0.938 | -0.906 | 0.387
56 | MB21D1 (UniProt Q8N884) | 0.409 | 0.258 | 0.109
57 | COG3 (UniProt Q96JB2) | 1.88 | 2.29 | 2.95
58 | PRRC2A (UniProt P48634) | 0.431 | 0.205 | -0.13
59 | HOOK1 (UniProt Q9UJC3) | -1.15 | -0.591 | -0.199
60 | COMMD2 (UniProt Q86X83) | 0.00791 | -0.169 | -0.00764
61 | ECEL1 (UniProt O95672) | -1.25 | -0.891 | 1.11
62 | PTGR2 (UniProt Q8N8N7) | 2.64 | 1.03 | 0.744
63 | APOB (UniProt P04114) | -0.228 | 0.0547 | -0.328
64 | MANBAL (UniProt Q9NQG1) | 1.06 | 1.59 | 0.0493
65 | EHD2 (UniProt Q9NZN4) | -0.612 | -0.489 | -0.781
66 | CDC73 (UniProt Q6P1J9) | 0.521 | 0.541 | 0.234
67 | RNF187 (UniProt Q5TA31) | -0.474 | -1.96 | -0.503
68 | TAB2 (UniProt Q9NYJ8) | 0.0348 | -0.0384 | -0.292
69 | TKT (UniProt P29401) | 0.488 | 0.386 | -0.045
70 | PPP3CA (UniProt Q08209) | 1.25 | 0.912 | 0.275
71 | RECQL5 (UniProt O94762) | -0.0312 | 0.0721 | -0.222
72 | UniProt G3V599 | -0.297 | -0.663 | 0.593
